The target in test [1] is T1, pseudo-kinase domain (JH2, amino-acids 536-812) of human V617F mutant JAK2 (Homo sapiens, UniProt O60674, F794H/V617F/W659A/W777A).
T1 construct: pseudo-kinase domain (JH2, amino-acids 536-812 with 3 surface mutations W659A, W777A, F794H); purchased BPS Bioscience 79498; host or cells: baculovirus expression system
Nature of the test: JAK2 LanthaScreen JH2-V617F Binding Assay. Conditions: 1 hour at 25° C. The gist of the method:
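TR-FRET tracer displacement: 0.26 nM protein, 50 nM tracer, 0.25 nM SA-Tb, 50 mM Tris pH 7.5, 10 mM MgCl2, 5 mM DTT; 1 h, 25° C. NSB = 2 mM ATP. IC50, 4-parameter curve.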

Test [2] concerns the target T2, pseudo-kinase domain (JH2, amino-acids 536-812) of human Wild Type JAK2 (Homo sapiens, UniProt O60674, F794H/W659A/W777A).
T2 construct: pseudo-kinase domain (JH2, amino-acids 536-812 with 3 surface mutations W659A, W777A, F794H); purchased BPS Bioscience 79463; host or cells: baculovirus expression system
Nature of the test: JAK2 LanthaScreen JH2-WT Binding Assay. Conditions: 1 hour at 25° C. In short, it runs like this: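 Compounds, serially diluted, were mixed with 0.145 nM JH2 domain, 50 nM tracer and 0.25 nM streptavidin-Tb cryptate, then incubated 1 hour at 25° C before LanthaScreen reading. Wells containing 2 mM ATP defined non-specific binding. Four-parameter dose-response curves gave IC50.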
(In general: TR-FRET usually uses a lanthanide donor and a delayed reading to cut background.)

The target in test [3] is T3, catalytic domain (JH1, amino acids 826-1132) of human JAK2 (Homo sapiens, UniProt O60674).
T3 construct: catalytic domain (JH1, amino acids 826-1132) of human JAK2; purchased Carna Biosciences 08-445-20N; host or cells: baculovirus expression system
The test is described as follows: JAK2 LanthaScreen JH1 Binding Assay. The conditions noted are these: 2 hours at 25° C. The gist of the method: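 Reaction held 1.5 nM biotinylated FLAG-JAK2 JH1, 50 nM tracer and 0.5 nM streptavidin-Tb in pH 7.5 Tris buffer; 2 mM ATP defined nonspecific binding.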

Test [4] has as its target T4, catalytic domain (JH1, amino acids 808-1132) of human JAK2 (Homo sapiens, UniProt O60674).
T4 construct: catalytic domain (JH1, amino acids 808-1132) of human JAK2; His (N); purchased BPS Bioscience 40450; host or cells: baculovirus expression system
The test is described as follows: JAK2 HTRF Enzyme Activity Assay. Format: biochemical. The conditions noted are these: ATP 30 μM, read-out: ENZ 30UMATP. The gist of the method:
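IC50 values come from a four-parameter fit of HTRF signal (Eu-PY20 antibody/streptavidin-APC, EDTA-quenched). Reaction: 0.015 nM N-His JAK2 catalytic domain (baculovirus), 500 nM biotin-peptide, 30 μM or 1 mM ATP, Tris pH 7.5 buffer, 60 min, 25° C.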

Counter-ions that a name gives are not always drawn. A value given as a limit tells only on which side of the number the result lay.

T4 sequence (O60674 808-1132): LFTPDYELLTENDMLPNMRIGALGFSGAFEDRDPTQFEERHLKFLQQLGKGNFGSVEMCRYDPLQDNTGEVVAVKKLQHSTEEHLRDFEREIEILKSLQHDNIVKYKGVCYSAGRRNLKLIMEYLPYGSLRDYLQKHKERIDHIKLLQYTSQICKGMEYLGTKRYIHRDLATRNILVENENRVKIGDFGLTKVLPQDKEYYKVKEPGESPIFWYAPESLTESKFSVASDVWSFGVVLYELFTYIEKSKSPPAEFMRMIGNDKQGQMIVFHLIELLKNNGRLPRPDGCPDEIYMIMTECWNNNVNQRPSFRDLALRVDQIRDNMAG
T1 sequence (O60674 536-812 V617F/W659A/W777A/F794H): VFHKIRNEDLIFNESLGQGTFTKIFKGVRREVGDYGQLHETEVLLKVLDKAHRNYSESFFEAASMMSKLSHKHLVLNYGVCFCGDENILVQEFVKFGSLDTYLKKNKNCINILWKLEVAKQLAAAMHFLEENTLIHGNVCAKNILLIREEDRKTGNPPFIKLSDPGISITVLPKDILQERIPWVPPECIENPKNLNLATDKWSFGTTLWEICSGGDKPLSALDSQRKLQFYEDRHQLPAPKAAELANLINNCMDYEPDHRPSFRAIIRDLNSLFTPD
T3 sequence (O60674 826-1132): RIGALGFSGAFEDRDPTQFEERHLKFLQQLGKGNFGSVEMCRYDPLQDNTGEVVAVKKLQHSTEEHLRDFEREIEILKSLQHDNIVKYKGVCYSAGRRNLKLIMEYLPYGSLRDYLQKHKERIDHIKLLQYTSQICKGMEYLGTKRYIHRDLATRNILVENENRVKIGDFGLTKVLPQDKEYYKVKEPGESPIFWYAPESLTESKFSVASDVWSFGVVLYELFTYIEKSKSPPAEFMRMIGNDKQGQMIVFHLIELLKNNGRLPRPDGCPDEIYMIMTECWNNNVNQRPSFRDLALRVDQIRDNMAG
T2 sequence (O60674 536-812 W659A/W777A/F794H): as the sequence (O60674 536-812 V617F/W659A/W777A/F794H) above, with F82V counted along it

With `COC(C)(C)Cn1cc(-c2[nH]c3ncc4c(c3c2-c2ccc3c(cnn3C)c2)C2(CCN(C3(CC#N)CCC3)CC2)C(=O)N4C)cn1` [Example 44, 2-(1-(2-(1-(2-Methoxy-2-methylpropyl)-1H-pyrazol-4-yl)-6-methyl-1-(1-methyl-1H-indazol-5-yl)-7-oxo-6,7-dihydro-3H-spiro[dipyrrolo[2,3-b:3′,2′-d]pyridine-8,4′-piperidin]-1′-yl)cyclobutyl)acetonitrile, trifluoroacetate salt], the IC50 in test [1] is no more than 100 nM; in test [2] it was no more than 100 nM; in test [3], 100 to 500 nM; in test [4], 100 to 500 nM.

On to `O=C(O)C(F)(F)F.[2H]C([2H])([2H])n1ccc2cc(-c3c(-c4cnn(CCOC)c4)[nH]c4ncc5c(c34)C3(CCN(C4(CC#N)CCC4)CC3)C(=O)N5C)ccc21` [Example 46, 2-(1-(2-(1-(2-Methoxyethyl)-1H-pyrazol-4-yl)-6-methyl-1-(1-(methyl-d3)-1H-indol-5-yl)-7-oxo-6,7-dihydro-3H-spiro[dipyrrolo[2,3-b:3′,2′-d]pyridine-8,4′-piperidin]-1′-yl)cyclobutyl)acetonitrile, trifluoroacetate salt], for which the IC50 in test [1] was no more than 100 nM; in test [2], no more than 100 nM; in test [3] it was 500 to 1250 nM; in test [4] it was 500 to 1250 nM.

As for `COc1c(F)cc(-c2c(-c3cnn(CC(C)(C)O)c3)[nH]c3ncc4c(c23)C2(CCN(C3(CC#N)CCC3)CC2)C(=O)N4C)cc1F` [Example 47, 2-(1-(1-(3,5-Difluoro-4-methoxyphenyl)-2-(1-(2-hydroxy-2-methylpropyl)-1H-pyrazol-4-yl)-6-methyl-7-oxo-6,7-dihydro-3H-spiro[dipyrrolo[2,3-b:3′,2′-d]pyridine-8,4′-piperidin]-1′-yl)cyclobutyl)acetonitrile, trifluoroacetate salt], the IC50 in test [1] was no more than 100 nM; in test [2] it was no more than 100 nM; in test [3], greater than 2500 nM; in test [4] it was greater than 2500 nM.

In the case of `CN1C(=O)C2(CCN(C3(CC#N)CCC3)CC2)c2c1cnc1[nH]c(-c3cnn(CC(C)(C)O)c3)c(-c3cc4cnccc4s3)c21` [Example 48, 2-(1-(2-(1-(2-Hydroxy-2-methylpropyl)-1H-pyrazol-4-yl)-6-methyl-7-oxo-1-(thieno[3,2-c]pyridin-2-yl)-6,7-dihydro-3H-spiro[dipyrrolo[2,3-b:3′,2′-d]pyridine-8,4′-piperidin]-1′-yl)cyclobutyl)acetonitrile, trifluoroacetate salt], the IC50 in test [1] was no more than 100 nM; in test [2], no more than 100 nM; in test [3], 100 to 500 nM; in test [4], 100 to 500 nM.

As for `CN1C(=O)C2(CCN(C3(CC#N)CCC3)CC2)c2c1cnc1[nH]c(-c3cnn(CC(C)(C)O)c3)c(-c3ccc(C4CC4)cc3)c21` [Example 49, 2-(1-(1-(4-Cyclopropylphenyl)-2-(1-(2-hydroxy-2-methylpropyl)-1H-pyrazol-4-yl)-6-methyl-7-oxo-6,7-dihydro-3H-spiro[dipyrrolo[2,3-b:3′,2′-d]pyridine-8,4′-piperidin]-1′-yl)cyclobutyl)acetonitrile, trifluoroacetate salt], the IC50 is no more than 100 nM in test [1], no more than 100 nM in test [2], greater than 2500 nM in test [3] and greater than 2500 nM in test [4].

On to `CN1C(=O)C2(CCN(C3(CC#N)CCC3)CC2)c2c1cnc1[nH]c(-c3cnn(CC(C)(C)O)c3)c(-c3ccc(OC(F)(F)F)cc3)c21` [Example 50, 2-(1-(2-(1-(2-Hydroxy-2-methylpropyl)-1H-pyrazol-4-yl)-6-methyl-7-oxo-1-(4-(trifluoromethoxy)phenyl)-6,7-dihydro-3H-spiro[dipyrrolo[2,3-b:3′,2′-d]pyridine-8,4′-piperidin]-1′-yl)cyclobutyl)acetonitrile, trifluoroacetate salt], for which the IC50 in test [1] is no more than 100 nM; in test [2], no more than 100 nM; in test [3], greater than 2500 nM; in test [4] it was greater than 2500 nM.
